According to patent US20240018129A1, “COMPOUNDS AS PU. 1 INHIBITORS” (PEKING UNIVERSITY, priority 2020, published 2024):

Legend:
PU.1 [1] = target: T1, PU.1 (Mus musculus, UniProt P17433); assay: q-PCR of TIM-3 expression in Blast-PU.1 cells (PU.1 inhibition potency); format: cell-based; conditions: 10 μM, Blast-PU.1 cells, 24 h treatment, q-PCR
T1 construct: EGFP (from 'PU.1-EGFP-vector'); expressed in transfected cells
From the text: An acute T cell lymphoblastic leukemia (T-ALL) disease model was used to evaluate the effect of the newly synthesized compounds on PU.1 inhibition. Pten, a famous tumor suppressor gene, was […] deleted in mouse hematopoietic stem cells and their differentiated progeny, and this would eventually lead to a progressive T-ALL in about two months from born. It is believed that immune checkpoint T cell immunoglobulin mucin-3 (TIM-3), a surface marker for the isolation of pure leukemia-initiating cells (LICs), is transcriptionally regulated by transcription factor PU.1 in the Pten-null T-ALL model. Therefore, the expression level of TIM-3 was detected and quantified to characterize the inhibition potency of the compounds after 24 h treatment of graded concentrations of compounds. Blast cells were transfected with either PU.1-EGFP-vector or EGFP-vector to yield stable cell lines blast-PU.1 and blast-EGFP, respectively. These cell lines were used for compound testing in vitro. Compounds DB1976 and DB2115 were tested as well for comparison. Blast-PU.1 and blast-EGFP are the ideal cell lines for compounds testing in vitro, since they are T-ALL blast cells with […] TIM-3 and PU.1 expression level.

[2] = test system: bleomycin-induced pulmonary fibrosis; assay: bleomycin-induced pulmonary fibrosis, preventive and therapeutic models; format: in vivo, mouse; conditions: preventive model, 5mpk i.p. for 4 weeks after single bleomycin injection
Procedure: Methods: To evaluate the preventive and therapeutic effects of compound I-1 on pulmonary fibrosis, bleomycin was used to establish two animal models of pulmonary fibrosis with different drug intervention (6-8 weeks, C57BL/6, male). Bleomycin (0.025U, Code.D11063, OKA, China) was injected by a single intratracheal application. Equal volumes of sterilized saline served as a control. (I) Preventive model of bleomycin-induced pulmonary fibrosis. Compounds compound I-1, positive control DB1976, or vehicle (saline) were treated (injected intraperitoneally, i.p.) immediately after single bleomycin injection for 4 weeks (FIG. 4a). (II) Therapeutic model of bleomycin-induced pulmonary fibrosis. Mice were pre-charged with bleomycin for 11 days to induced pulmonary fibrosis, then treated with compounds compound I-1, positive control DB1976, or vehicle (saline) for 17 days, total time is 4 weeks after bleomycin treatment (FIG. 4h). After the last day of treatment of both models, mice were fasted overnight and euthanized. A part of lung was fixed with paraformaldehyde, embedded with paraffin, and then sliced for H&E and Sirius red staining to check pathological features, and Ashcroft scores. Hubner, R. H. et al. Biotechniques 44, 507-511, 514-507, doi:10.2144/000112729 (2008). Another part of lung were collected and stored in −80° C. after liquid nitrogen quick-freezing, RNA isolation (Code.R6934, OMEGA, USA), first cDNA reverse (Code.AT341, TransGen, China), SYBR mix (Code.AQ601, TransGen, China) for Q-PCR (LightCycle96, Roche) to verify several fibrosis-related genes mRNA level, such as, Col1a1 and Col1a2.

PU.1 [3] = target: PU.1 (Homo sapiens, UniProt P17947); conditions: cited from earlier work
NASH diet-induced NASH = NASH diet-induced NASH model; format: in vivo, mouse; conditions: 2.5mpk i.p. daily for 6 weeks
From the text: (§1) Methods: To evaluate the potential therapeutic effects of compound I-1 on liver disorders, including liver fat steatosis and accumulation, nonalcoholic fatty liver disease (NAFLD), nonalcoholic steatosis hepatitis (NASH), and liver fibrosis, three mice models (C57BL/6, male, 8 weeks old) were used. (I) NASH diet (Code.TD.160785, ENVIGO, USA)-induced NASH model: All mice were fed with NASH diet for 10 weeks. Mice were then randomly distributed into three groups, and each group was assigned to be injected daily with vehicle, compound I-1 (2.5mpk or 5mpk, i.p.), or DB1976 (2.5mpk, i.p, as a positive control) for another 6 weeks on continuous NASH diet. A group with normal regular diet was treated with vehicle as health control. (II) High-fat diet (HFD) combinate with CCl4 (lower dose)—induced NASH model. Mice were fed with normal regular diet or HFD (kcal fat 60%—D12492, research diets) for 10 weeks, then the HFD mice were divided into two groups randomly based on the rule of minimum weight differences. Each group was assigned to be injected with CCl4 (25% v/v in olive oil, 0.5 mL/kg body weight) or pure olive oil (i.p.) twice a week for 4 weeks. Compound 1-1 or vehicle (saline) were injected (i.p.) once daily for 4 weeks at the same time with CCl4 under continuous HFD. (III) CCl4 (higher dose)—induced liver fibrosis model. Liver fibrosis was induced by CCl4 injection (20% v/v in olive oil, 10 mL/kg body weight) twice a week for 6 weeks, compound I-1 or vehicle are also injected (i.p.) once daily for 6 weeks at the same time with CCl4 application. Ail the mice in the above-mentioned three models were observed daily. After the last day of treatment of all the models, mice were fasted overnight and euthanized. Serum was collected after centrifuging of the whole blood at 4 degrees, and blood biochemistry parameters were tested through automatic biochemical instrument (BS-240VET, Mindray). Part of liver tissues were fixed with paraformaldehyde, embedded with paraffin, and then sliced for H&E or Sirius red staining to check pathological features, and NAFLD scores. Kleiner, D. E. et al. Hepatology 41, 1313-1321, doi:10.1002/hep.20701 (2005). Part of liver tissues were used fresh, embedded in optimum cutting temperature compound, and sectioned. The sections were stained with 0.5% oil red 0 according to standard procedures after fixed in 4% paraformaldehyde in PBS. Another part of liver tissues were collected and stored in −80° C. after liquid nitrogen quick-freezing, RNA. isolation (Code.R6934, OMEGA., USA), first cDNA reverse (Code.AT341, TransGen, China), SYBR mix (Code.AQ601, TransGen, China) for Q-PCR (LightCycler®96, Roche) to verify genes mRNA level, such as, fibrosis-related genes, Col1a1 and Col1a2; inflammation-related genes, IL-6 and IL-1β.

[4] = test system: HFD/CCL4-induced NASH and liver fibrosis; assay: High-fat diet (HFD) combined with CCl4 (lower dose)-induced NASH model; format: in vivo, mouse
From the text: as §1

NASH = conditions: in vivo; Liu et al., J Hepatol 2020; cited from earlier work
other ETS family numbers = conditions: cited from earlier work
[5] = test system: skin, liver and lung fibrosis; conditions: Wohlfahrt et al., Nature 2019; cited from earlier work
[6] = test system: bleomycin-induced skin fibrosis; assay: bleomycin-induced skin fibrosis, preventive and therapeutic models; format: in vivo, mouse
Procedure: Methods: To evaluate the preventive and therapeutic effects of compound I-1 on skin fibrosis, bleomycin was used to establish two animal models of skin fibrosis with different drug intervention (6-8 weeks, C57BL/6, male). Skin fibrosis was induced by local injection of bleomycin (0.5 mg/mL, 0.1 ml/mouse) in a skin defined area (˜1 cm^2), where the hair was removed in advance, at the upper back every other day. Subcutaneous saline injections served as controls. (I) Preventive model of bleomycin-induced skin fibrosis: Compound I-1, positive control DB1976, or vehicle (saline) were injected i.p. simultaneously with bleomycin for 4 weeks (FIG. 3a). (II) Therapeutic model of bleomycin-induced skin fibrosis: Mice were pre-charged with bleomycin for 3 weeks to induce skin fibrosis, then treated with compound I-1, positive control DB1976, or vehicle (saline) for another 3 weeks, total time is 6 weeks after the first bleomycin treatment (FIG. 30. After the last day of treatment of both models, mice were fasted overnight and euthanized. Part of the skin was fixed with paraformaldehyde after fully flat on a foil, embedded with paraffin, and then sliced for H&E, Sirius red and Masson staining to check pathological features. The epidermal thickness of each sample was calculated quantitatively with image J. Another part of skin was collected and stored at −80° C. after liquid nitrogen quick-freezing, RNA isolation (Code.R6934, OMEGA, USA), first cDNA reverse (Code.AT341, TransGen, China), SYBR mix (Code.AQ601, TransGen, China) for Q-PCR (LightCycler® 96, Roche) to verify several fibrosis-related genes mRNA level, such as, Col1a1 and Col1a2.

[7] = test system: T-ALL blast cells and TIM-3-high LICs; assay: Pten-null T-ALL mouse model, compound I-1 and/or rapamycin treatment
Procedure: To generate a Pten-null T-ALL mouse model, Pten was 40% deleted in mouse fetal liver hematopoietic stem cells (HSCs), followed by PI3K-AKT pathway activation, hematopoietic disorder and T-ALL development. In the T-ALL crisis stage, T-ALL blasts and LICs would infiltrate mouse hematopoietic organs and non-hematopoietic organs.
After treatment, hematopoietic and non-hematopoietic organ morphology of the mice was analyzed using hematoxylin-eosin (H&E) staining.

[8] = preventive model, 5mpk i.p., 4 weeks

N=C(N)c1ccc2nc(-c3ccc(NC(=O)[C@H]4CCCN4C(=O)[C@H]4CCCN4C(=O)c4ccc(-c5nc6ccc(C(=N)N)cc6[nH]5)cc4)cc3)[nH]c2c1 [Compound I-2, (R)-1-((4-(6-carbamimidoyl-1H-benzo[d]imidazol-2-yl)benzoyl)-D-prolyl)-N-(4-(6-carbamimidoyl-1H-benzo[d]imidazol-2-yl)phenyl)pyrrolidine-2-carboxamide]
inhibition of TIM-3 expression (PU.1 [1]): no obvious inhibition

N=C(N)c1ccc2nc(-c3ccc(-c4nc5ccc(C(=N)N)cc5[nH]4)[se]3)[nH]c2c1 [DB1976, reference compound]
pulmonary fibrosis progress (staining, Ashcroft scores, collagen deposition, Col1a1, Col1a2 mRNA) [2]: significantly prevented | potency as PU.1 inhibitor (PU.1 [3]): limited potency | metabolic disturbance by NASH diet (body weight, liver fat, ALT, LDL-C, TC, IL-6, IL-1β, Col1a1, Col1a2) (NASH diet-induced NASH): potently alleviated | serum triglyceride (TG) and total-cholesterol (TC) ([4]; fasting serum, i.p. once daily for 4 weeks): reduced | body weight, gWAT and iWAT weight radio increased by HFD/CCL4 ([4]; i.p. once daily for 4 weeks with CCl4 under HFD): reversed | collagen deposition (sirius red staining) and liver mRNA level of Col1a1 and Col1a2 ([4]; mouse, in vivo): reduced | liver fibrosis induced by HFD/CCL4 application ([4]; mouse, in vivo): significantly alleviated | effects on NASH progress (liver steatosis, inflammation, fibrosis, glucose homeostasis) (NASH): beneficial effects | activity on other ETS family numbers (other ETS family numbers): inhibitory activity | skin, liver and lung fibrosis [5]: alleviated | skin fibrosis progress ([6]; preventive model, 5mpk i.p. simultaneously with bleomycin for 4 weeks, vs bleomycin/vehicle): significantly prevented | collagen deposition [6, 8]: reducing | epidermal thickness [6, 8]: reducing | mRNA level of Col1a1 and Col1a2 ([6]; preventive model, 5mpk i.p., 4 weeks, skin): decreasing | bleomycin-induced skin fibrosis ([6]; therapeutic model, 3 weeks bleomycin then 3 weeks treatment, 5mpk): significantly alleviated and reversed

CO[C@H]1C[C@@H]2CC[C@@H](C)[C@@](O)(O2)C(=O)C(=O)N2CCCC[C@H]2C(=O)O[C@H]([C@H](C)C[C@@H]2CC[C@@H](O)[C@H](OC)C2)CC(=O)[C@H](C)/C=C(\C)[C@@H](O)[C@@H](OC)C(=O)[C@H](C)C[C@H](C)/C=C/C=C/C=C/1C [rapamycin, reference compound]
proportion of blasts in bone marrow ([7]; after two days' treatment at blast crisis stage, without treatment 96.4%): 13.2% | TIM-3 high LICs proportion ([7]; after two days' treatment, bone marrow, without treatment 33.5%): 22.2%

N=C(N)c1ccc2nc(-c3ccc(NC(=O)[C@@H]4CCCN4C(=O)[C@H]4CCCN4C(=O)c4ccc(-c5nc6ccc(C(=N)N)cc6[nH]5)cc4)cc3)[nH]c2c1 [Compound I-3, (S)-1-((4-(6-carbamimidoyl-1H-benzo[d]imidazol-2-yl)benzoyl)-D-prolyl)-N-(4-(6-carbamimidoyl-1H-benzo[d]imidazol-2-yl)phenyl)pyrrolidine-2-carboxamide]
inhibition of TIM-3 expression (PU.1 [1]): no obvious inhibition
